What was measured:
Assay type in all cases: in vivo
[1] = system: redroot pigweed (Amaranthus retroflexus); test: Test G Pre-Emergence Protocol; details: Amaranthus retroflexus, pre-emergence, 312 h, evaluated after 13 days; for pest or weed control at 15.625 g/ha: 15.625 g ai/ha; for pest or weed control at 15.625 g/ha / pest or weed control at 250 g/ha: read-out: Pigweed, Redroot damage rating (100=total damage to plant; 0=no damage to plant); for pest or weed control at 62.5 g/ha: 62.5 g ai/ha, 100=total damage to plant, 0=no damage to plant, read-out: Pigweed, Redroot damage rating; for pest or weed control at 250 g/ha: 250 g ai/ha
Summary of the method: (§1)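 One day after sowing, pots are treated with a spray of test compound formulated in acetone/water 50:50 plus 0.5% Tween 20, giving 15.625, 62.5 or 250 g/ha. Evaluation on a 0–100 damage scale follows 13 days of glasshouse growth.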

[2] = system: giant foxtail (Setaria faberi); test: Test G Pre-Emergence Protocol; details: Setaria faberi, pre-emergence, 312 h, evaluated after 13 days; for pest or weed control at 15.625 g/ha: 15.625 g ai/ha; for pest or weed control at 15.625 g/ha / pest or weed control at 250 g/ha: read-out: Foxtail, Giant damage rating (100=total damage to plant; 0=no damage to plant); for pest or weed control at 62.5 g/ha: 62.5 g ai/ha, 100=total damage to plant, 0=no damage to plant, read-out: Foxtail, Giant damage rating; for pest or weed control at 250 g/ha: 250 g ai/ha
Summary of the method: as §1

[3] = system: corn (Zea mays); test: Test G Pre-Emergence Protocol; details: Zea mays, pre-emergence, 312 h, evaluated after 13 days; for plant injury at 15.625 g/ha: 15.625 g ai/ha; for plant injury at 15.625 g/ha / plant injury at 250 g/ha: read-out: Corn damage rating (100=total damage to plant; 0=no damage to plant); for plant injury at 62.5 g/ha: 62.5 g ai/ha, 100=total damage to plant, 0=no damage to plant, read-out: Corn damage rating; for plant injury at 250 g/ha: 250 g ai/ha
Summary of the method: as §1

[4] = system: ivy-leaved morning glory (Ipomoea hederacea); test: Test G Pre-Emergence Protocol; details: Ipomoea, pre-emergence, 312 h, evaluated after 13 days; for pest or weed control at 15.625 g/ha: 15.625 g ai/ha; for pest or weed control at 15.625 g/ha / pest or weed control at 250 g/ha: read-out: Morningglory, Ivy-leaved damage rating (100=total damage to plant; 0=no damage to plant); for pest or weed control at 62.5 g/ha: 62.5 g ai/ha, 100=total damage to plant, 0=no damage to plant, read-out: Morningglory, Ivy-leaved damage rating; for pest or weed control at 250 g/ha: 250 g ai/ha
Summary of the method: as §1

[5] = system: velvetleaf (Abutilon theophrasti); test: Test G Pre-Emergence Protocol; details: Abutilon theophrasti, pre-emergence, 312 h, evaluated after 13 days; for pest or weed control at 15.625 g/ha: 15.625 g ai/ha; for pest or weed control at 15.625 g/ha / pest or weed control at 250 g/ha: read-out: Velvetleaf damage rating (100=total damage to plant; 0=no damage to plant); for pest or weed control at 62.5 g/ha: 62.5 g ai/ha, 100=total damage to plant, 0=no damage to plant, read-out: Velvetleaf damage rating; for pest or weed control at 250 g/ha: 250 g ai/ha
Summary of the method: as §1

[6] = system: barnyardgrass (Echinochloa crus-galli); test: Test G Pre-Emergence Protocol; details: Echinochloa crus-galli, pre-emergence, 312 h, evaluated after 13 days; for pest or weed control at 15.625 g/ha: 15.625 g ai/ha; for pest or weed control at 15.625 g/ha / pest or weed control at 250 g/ha: read-out: Barnyardgrass damage rating (100=total damage to plant; 0=no damage to plant); for pest or weed control at 62.5 g/ha: 62.5 g ai/ha, 100=total damage to plant, 0=no damage to plant, read-out: Barnyardgrass damage rating; for pest or weed control at 250 g/ha: 250 g ai/ha
Summary of the method: as §1

[7] = system: redroot pigweed (Amaranthus retroflexus); test: Test G Post-Emergence Protocol; details: Amaranthus retroflexus, post-emergence, 312 h, read-out: Pigweed, Redroot damage rating; for pest or weed control at 15.625 g/ha: 15.625 g ai/ha, evaluated after 13 days (100=total damage to plant; 0=no damage to plant); for pest or weed control at 62.5 g/ha: 62.5 g ai/ha; for pest or weed control at 62.5 g/ha / pest or weed control at 250 g/ha: evaluated after 13 days, 100=total damage to plant, 0=no damage to plant; for pest or weed control at 250 g/ha: 250 g ai/ha
Summary of the method: (§2)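 Post-emergence herbicidal damage, scored visually 0–100 at 13 days. Application at 15.625, 62.5 or 250 g/ha onto 8-day-old plants grown under glasshouse control.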

[8] = system: giant foxtail (Setaria faberi); test: Test G Post-Emergence Protocol; details: Setaria faberi, post-emergence, 312 h, read-out: Foxtail, Giant damage rating; for pest or weed control at 15.625 g/ha: 15.625 g ai/ha, evaluated after 13 days (100=total damage to plant; 0=no damage to plant); for pest or weed control at 62.5 g/ha: 62.5 g ai/ha; for pest or weed control at 62.5 g/ha / pest or weed control at 250 g/ha: evaluated after 13 days, 100=total damage to plant, 0=no damage to plant; for pest or weed control at 250 g/ha: 250 g ai/ha
Summary of the method: as §2

[9] = system: corn (Zea mays); test: Test G Post-Emergence Protocol; details: Zea mays, post-emergence, 312 h, read-out: Corn damage rating; for plant injury at 15.625 g/ha: 15.625 g ai/ha, evaluated after 13 days (100=total damage to plant; 0=no damage to plant); for plant injury at 62.5 g/ha: 62.5 g ai/ha; for plant injury at 62.5 g/ha / plant injury at 250 g/ha: evaluated after 13 days, 100=total damage to plant, 0=no damage to plant; for plant injury at 250 g/ha: 250 g ai/ha
Summary of the method: as §2

[10] = system: ivy-leaved morning glory (Ipomoea hederacea); test: Test G Post-Emergence Protocol; details: Ipomoea, post-emergence, 312 h, read-out: Morningglory, Ivy-leaved damage rating; for pest or weed control at 15.625 g/ha: 15.625 g ai/ha, evaluated after 13 days (100=total damage to plant; 0=no damage to plant); for pest or weed control at 62.5 g/ha: 62.5 g ai/ha; for pest or weed control at 62.5 g/ha / pest or weed control at 250 g/ha: evaluated after 13 days, 100=total damage to plant, 0=no damage to plant; for pest or weed control at 250 g/ha: 250 g ai/ha
Summary of the method: as §2

[11] = system: velvetleaf (Abutilon theophrasti); test: Test G Post-Emergence Protocol; details: Abutilon theophrasti, post-emergence, 312 h, read-out: Velvetleaf damage rating; for pest or weed control at 15.625 g/ha: 15.625 g ai/ha, evaluated after 13 days (100=total damage to plant; 0=no damage to plant); for pest or weed control at 62.5 g/ha: 62.5 g ai/ha; for pest or weed control at 62.5 g/ha / pest or weed control at 250 g/ha: evaluated after 13 days, 100=total damage to plant, 0=no damage to plant; for pest or weed control at 250 g/ha: 250 g ai/ha
Summary of the method: as §2

[12] = system: barnyardgrass (Echinochloa crus-galli); test: Test G Post-Emergence Protocol; details: Echinochloa crus-galli, post-emergence, 312 h, read-out: Barnyardgrass damage rating; for pest or weed control at 15.625 g/ha: 15.625 g ai/ha, evaluated after 13 days (100=total damage to plant; 0=no damage to plant); for pest or weed control at 62.5 g/ha: 62.5 g ai/ha; for pest or weed control at 62.5 g/ha / pest or weed control at 250 g/ha: evaluated after 13 days, 100=total damage to plant, 0=no damage to plant; for pest or weed control at 250 g/ha: 250 g ai/ha
Summary of the method: as §2

| Compound | pest or weed control at 15.625 g/ha [1] [%] | pest or weed control at 62.5 g/ha [1] [%] | pest or weed control at 250 g/ha [1] [%] | pest or weed control at 15.625 g/ha [2] [%] | pest or weed control at 62.5 g/ha [2] [%] | pest or weed control at 250 g/ha [2] [%] | plant injury at 15.625 g/ha [3] [%] | plant injury at 62.5 g/ha [3] [%] | plant injury at 250 g/ha [3] [%] | pest or weed control at 15.625 g/ha [4] [%] | pest or weed control at 62.5 g/ha [4] [%] | pest or weed control at 250 g/ha [4] [%] | pest or weed control at 15.625 g/ha [5] [%] | pest or weed control at 62.5 g/ha [5] [%] | pest or weed control at 250 g/ha [5] [%] | pest or weed control at 15.625 g/ha [6] [%] | pest or weed control at 62.5 g/ha [6] [%] | pest or weed control at 250 g/ha [6] [%] | pest or weed control at 15.625 g/ha [7] [%] | pest or weed control at 62.5 g/ha [7] [%] | also measured |
| --- | --- | --- | --- | --- | --- | --- | --- | --- | --- | --- | --- | --- | --- | --- | --- | --- | --- | --- | --- | --- | --- |
| COc1c(F)cc(C2CN(C)C(=O)C2C(=O)Nc2cccc(F)c2F)cc1Cl (stereo not drawn) [Compound 1709] | 0 | 20 | 50 | 70 | 80 | 90 | 0 | 70 | 90 | 0 | 10 | 20 | 0 | 20 | 30 | 60 | 70 | 80 | 20 | 10 | pest or weed control at 250 g/ha [7]: 30%; pest or weed control at 15.625 g/ha [8]: 70%; pest or weed control at 62.5 g/ha [8]: 80%; pest or weed control at 250 g/ha [8]: 80%; plant injury at 15.625 g/ha [9]: 30%; plant injury at 62.5 g/ha [9]: 60%; plant injury at 250 g/ha [9]: 80%; pest or weed control at 15.625 g/ha [10]: 10%; pest or weed control at 62.5 g/ha [10]: 50%; pest or weed control at 250 g/ha [10]: 70%; pest or weed control at 15.625 g/ha [11]: 20%; pest or weed control at 62.5 g/ha [11]: 10%; pest or weed control at 250 g/ha [11]: 50%; pest or weed control at 15.625 g/ha [12]: 30%; pest or weed control at 62.5 g/ha [12]: 70%; pest or weed control at 250 g/ha [12]: 80% |
| CCOc1ccc([C@@H]2CN(C)C(=O)[C@H]2C(=O)Nc2cccc(F)c2C)cc1Cl (racemic) [Compound 1803] | 30 | 0 | 40 | 70 | 90 | 90 | 0 | 0 | 30 | 0 | 0 | 0 | 10 | 0 | 20 | 20 | 70 | 90 | 0 | 0 | pest or weed control at 250 g/ha [7]: 20%; pest or weed control at 15.625 g/ha [8]: 20%; pest or weed control at 62.5 g/ha [8]: 70%; pest or weed control at 250 g/ha [8]: 80%; plant injury at 15.625 g/ha [9]: 0%; plant injury at 62.5 g/ha [9]: 0%; plant injury at 250 g/ha [9]: 0%; pest or weed control at 15.625 g/ha [10]: 0%; pest or weed control at 62.5 g/ha [10]: 10%; pest or weed control at 250 g/ha [10]: 10%; pest or weed control at 15.625 g/ha [11]: 0%; pest or weed control at 62.5 g/ha [11]: 0%; pest or weed control at 250 g/ha [11]: 0%; pest or weed control at 15.625 g/ha [12]: 0%; pest or weed control at 62.5 g/ha [12]: 0%; pest or weed control at 250 g/ha [12]: 70% |

From patent US12077503B2, “Substituted cyclic amides and their use as herbicides” (FMC CORPORATION, priority 2015, dated 2024)
